# Measured values published in ChEMBL document CHEMBL1147590, “Synthesis and antitumor activity of s-tetrazine derivatives” (Bioorg Med Chem Lett, 2004).
# What was measured:
# [1] = system: A549; assay: In vitro rate of inhibition of A-549 tumor cell growth at 10E-4 mol/L; type: functional, Homo sapiens; settings: at 100 µM
# [2] = system: A549; assay: In vitro rate of inhibition of A-549 tumor cell growth at 10E-8 mol/L; type: functional, Homo sapiens; settings: at 0.01 µM
# [3] = system: A549; assay: In vitro rate of inhibition of A-549 tumor cell growth at 10E-5 mol/L; type: functional, Homo sapiens; settings: at 10 µM
# [4] = system: P388; assay: In vitro rate of inhibition of P388 tumor cell growth at 10E-5 mol/L; type: functional, Mus musculus; settings: at 10 µM
# [5] = system: P388; assay: In vitro rate of inhibition of P388 tumor cell growth at 10E-7 mol/L; type: functional, Mus musculus; settings: at 0.1 µM
# [6] = system: P388; assay: In vitro rate of inhibition of P388 tumor cell growth at 10E-6 mol/L; type: functional, Mus musculus; settings: at 1 µM
# [7] = system: P388; assay: In vitro rate of inhibition of P388 tumor cell growth at 10E-8 mol/L; type: functional, Mus musculus; settings: at 0.01 µM
# [8] = system: A549; assay: In vitro rate of inhibition of A-549 tumor cell growth at 10E-7 mol/L; type: functional, Homo sapiens; settings: at 0.1 µM
# [9] = system: P388; assay: In vitro rate of inhibition of P388 tumor cell growth at 10E-4 mol/L; type: functional, Mus musculus; settings: at 100 µM
# [10] = system: A549; assay: In vitro rate of inhibition of A-549 tumor cell growth at 10E-6 mol/L; type: functional, Homo sapiens; settings: at 1 µM
compound,measurement,setting,value
CCCC1NN(C(C)=O)C(CCC)NN1C(C)=O (stereo not given),Rate of inhibition,[1],59.8%
same,Rate of inhibition,[2],0%
same,Rate of inhibition,[3],8.6%
same,Rate of inhibition,[4],5.5%
same,Rate of inhibition,[5],3.1%
same,Rate of inhibition,[6],3.2%
same,Rate of inhibition,[7],0%
same,Rate of inhibition,[8],1.2%
same,Rate of inhibition,[9],38.5%
same,Rate of inhibition,[10],4%
CC1=NN(C(=O)Nc2ccc(Cl)cc2)C(C)=NN1C(=O)Nc1ccc(Cl)cc1,Rate of inhibition,[1],53.4%
same,Rate of inhibition,[2],0%
same,Rate of inhibition,[3],14.8%
same,Rate of inhibition,[4],14.8%
same,Rate of inhibition,[5],7.4%
same,Rate of inhibition,[6],1.9%
same,Rate of inhibition,[7],0%
same,Rate of inhibition,[8],7.4%
same,Rate of inhibition,[9],50%
same,Rate of inhibition,[10],1.9%
Clc1ccccc1-c1nnc(-c2ccccc2Cl)nn1 [CLOFENTEZINE],Rate of inhibition,[1],0%
same,Rate of inhibition,[2],0%
same,Rate of inhibition,[3],0%
same,Rate of inhibition,[4],2.8%
same,Rate of inhibition,[5],14.6%
same,Rate of inhibition,[6],5.6%
same,Rate of inhibition,[7],12.6%
same,Rate of inhibition,[8],0%
same,Rate of inhibition,[9],8.2%
same,Rate of inhibition,[10],0%
CCCC1=NN(C(=O)Nc2cccc(C)c2)C(CCC)=NN1C(=O)Nc1cccc(C)c1,Rate of inhibition,[1],93.3%
same,Rate of inhibition,[2],0%
same,Rate of inhibition,[3],84.2%
same,Rate of inhibition,[4],63.9%
same,Rate of inhibition,[5],4.8%
same,Rate of inhibition,[6],0%
same,Rate of inhibition,[7],0%
same,Rate of inhibition,[8],4%
same,Rate of inhibition,[9],81.6%
same,Rate of inhibition,[10],74.1%
COc1ccccc1NC(=O)N1N=C(C)N(C(=O)Nc2ccccc2OC)N=C1C,Rate of inhibition,[1],80%
same,Rate of inhibition,[2],0%
same,Rate of inhibition,[3],0%
same,Rate of inhibition,[4],17.2%
same,Rate of inhibition,[5],0%
same,Rate of inhibition,[6],1.6%
same,Rate of inhibition,[7],0%
same,Rate of inhibition,[8],0%
same,Rate of inhibition,[9],59.4%
same,Rate of inhibition,[10],0%
CC(=O)N1N=C(c2ccccc2)NN=C1c1ccccc1,Rate of inhibition,[1],85.1%
same,Rate of inhibition,[2],0%
same,Rate of inhibition,[3],0%
same,Rate of inhibition,[4],10.9%
same,Rate of inhibition,[5],5.5%
same,Rate of inhibition,[6],6.6%
same,Rate of inhibition,[7],9.2%
same,Rate of inhibition,[8],0%
same,Rate of inhibition,[9],62.7%
same,Rate of inhibition,[10],0%
c1ccc(Cc2nnc(Cc3ccccc3)nn2)cc1,Rate of inhibition,[1],66.8%
same,Rate of inhibition,[2],0%
same,Rate of inhibition,[3],61.7%
same,Rate of inhibition,[4],15.6%
same,Rate of inhibition,[5],4.6%
same,Rate of inhibition,[6],18.5%
same,Rate of inhibition,[7],0%
same,Rate of inhibition,[8],0%
same,Rate of inhibition,[9],51%
same,Rate of inhibition,[10],4.3%
